According to the supplement of paper PMC7214452:

Experiments:
Experiment in all cases: normalized area under the dose-response curve (viability relative to DMSO control) (fraction); higher = less sensitive (more viable cells)
Conditions in all cases: exposure time not given
[1] = system: OCI-MY5/CRBN (cancer type: MM)
Procedure: (§1)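 25 myeloma and 15 non-Hodgkin lymphoma cell lines were exposed to each of 76 drugs as 7-point log dilutions (0.01 nM–10 µM) in duplicate. Viability was read with CellTiter-Glo and normalised to DMSO (0.1%) and staurosporine (10 µM) plate controls. Normalised AUC was calculated by the trapezoidal method relative to the negative control.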

[2] = system: JeKo-1 (cancer type: Mantle)
Procedure: as §1

[3] = system: OCI-MY7 (cancer type: MM)
Procedure: as §1

MM1.R (cancer type: MM) = system: MM1.R (cancer type: MM)
Procedure: as §1

JJN3 (cancer type: MM) = system: JJN3 (cancer type: MM)
Procedure: as §1

OPM2 (cancer type: MM) = system: OPM2 (cancer type: MM)
Procedure: as §1

[4] = system: NCI-H929 (cancer type: MM)
Procedure: as §1

[5] = system: SU-DHL6 (cancer type: DLBCL)
Procedure: as §1

KMS11 (cancer type: MM) = system: KMS11 (cancer type: MM)
Procedure: as §1

[6] = system: Karpas-299 (cancer type: TCL)
Procedure: as §1

[7] = system: HuT 78 (cancer type: TCL)
Procedure: as §1

[8] = system: OCI-MY5 (cancer type: MM)
Procedure: as §1

EJM (cancer type: MM) = system: EJM (cancer type: MM)
Procedure: as §1

LP1 (cancer type: MM) = system: LP1 (cancer type: MM)
Procedure: as §1

Se-Ax (cancer type: TCL) = system: Se-Ax (cancer type: TCL)
Procedure: as §1

[9] = system: RPMI 8226 (cancer type: MM)
Procedure: as §1

[10] = system: OCI-LY19 (cancer type: DLBCL)
Procedure: as §1

[11] = system: OCI-MY5/Vec (cancer type: MM)
Procedure: as §1

AMO1 (cancer type: MM) = system: AMO1 (cancer type: MM)
Procedure: as §1

[12] = system: KMS28PE (cancer type: MM)
Procedure: as §1

MM1.S (cancer type: MM) = system: MM1.S (cancer type: MM)
Procedure: as §1

XG2 (cancer type: MM) = system: XG2 (cancer type: MM)
Procedure: as §1

L363 (cancer type: MM) = system: L363 (cancer type: MM)
Procedure: as §1

KMS34 (cancer type: MM) = system: KMS34 (cancer type: MM)
Procedure: as §1

KMS26 (cancer type: MM) = system: KMS26 (cancer type: MM)
Procedure: as §1

[13] = system: SU-DHL2 (cancer type: DLBCL)
Procedure: as §1

[14] = system: Granta-519 (cancer type: Mantle)
Procedure: as §1

[15] = system: SU-DHL1 (cancer type: TCL)
Procedure: as §1

[16] = system: Mino (cancer type: Mantle)
Procedure: as §1

FR4 (cancer type: MM) = system: FR4 (cancer type: MM)
Procedure: as §1

[17] = system: KMS28BM (cancer type: MM)
Procedure: as §1

SKMM2 (cancer type: MM) = system: SKMM2 (cancer type: MM)
Procedure: as §1

KMS18 (cancer type: MM) = system: KMS18 (cancer type: MM)
Procedure: as §1

[18] = system: SR-786 (cancer type: TCL)
Procedure: as §1

[19] = system: KMS12PE (cancer type: MM)
Procedure: as §1

[20] = system: OCI-LY3 (cancer type: DLBCL)
Procedure: as §1

[21] = system: JVM2 (cancer type: Mantle)
Procedure: as §1

My-La (cancer type: TCL) = system: My-La (cancer type: TCL)
Procedure: as §1

[22] = system: OCI-LY1 (cancer type: DLBCL)
Procedure: as §1

U266 (cancer type: MM) = system: U266 (cancer type: MM)
Procedure: as §1

| SMILES | normalized area under the dose-response curve [1] | normalized area under the dose-response curve [2] | normalized area under the dose-response curve [3] | normalized area under the dose-response curve (MM1.R (cancer type: MM)) | normalized area under the dose-response curve (JJN3 (cancer type: MM)) | normalized area under the dose-response curve (OPM2 (cancer type: MM)) | normalized area under the dose-response curve [4] | normalized area under the dose-response curve [5] | normalized area under the dose-response curve (KMS11 (cancer type: MM)) | normalized area under the dose-response curve [6] | normalized area under the dose-response curve [7] | normalized area under the dose-response curve [8] | normalized area under the dose-response curve (EJM (cancer type: MM)) | normalized area under the dose-response curve (LP1 (cancer type: MM)) | normalized area under the dose-response curve (Se-Ax (cancer type: TCL)) | normalized area under the dose-response curve [9] | normalized area under the dose-response curve [10] | normalized area under the dose-response curve [11] | normalized area under the dose-response curve (AMO1 (cancer type: MM)) | normalized area under the dose-response curve [12] | normalized area under the dose-response curve (MM1.S (cancer type: MM)) | normalized area under the dose-response curve (XG2 (cancer type: MM)) | normalized area under the dose-response curve (L363 (cancer type: MM)) | normalized area under the dose-response curve (KMS34 (cancer type: MM)) | normalized area under the dose-response curve (KMS26 (cancer type: MM)) | normalized area under the dose-response curve [13] | normalized area under the dose-response curve [14] | normalized area under the dose-response curve [15] | normalized area under the dose-response curve [16] | normalized area under the dose-response curve (FR4 (cancer type: MM)) | normalized area under the dose-response curve [17] | normalized area under the dose-response curve (SKMM2 (cancer type: MM)) | normalized area under the dose-response curve (KMS18 (cancer type: MM)) | normalized area under the dose-response curve [18] | normalized area under the dose-response curve [19] | normalized area under the dose-response curve [20] | normalized area under the dose-response curve [21] | normalized area under the dose-response curve (My-La (cancer type: TCL)) | normalized area under the dose-response curve [22] | normalized area under the dose-response curve (U266 (cancer type: MM)) |
| --- | --- | --- | --- | --- | --- | --- | --- | --- | --- | --- | --- | --- | --- | --- | --- | --- | --- | --- | --- | --- | --- | --- | --- | --- | --- | --- | --- | --- | --- | --- | --- | --- | --- | --- | --- | --- | --- | --- | --- | --- |
| CC(=O)O[C@H]1C(=O)[C@@]2(C)[C@H]([C@H](OC(=O)c3ccccc3)[C@]3(O)C[C@H](OC(=O)[C@H](O)[C@@H](NC(=O)c4ccccc4)c4ccccc4)C(C)=C1C3(C)C)[C@]1(OC(C)=O)CO[C@@H]1C[C@@H]2O [Paclitaxel] | 0.595 | 0.3 | 0.86 | 0.58 | 0.993 | 0.89 | 0.49 | 0.793 | 0.853 | 0.454 | 0.329 | 0.666 | 0.751 | 0.865 | 0.635 | 0.781 | 0.652 | 0.478 | 0.595 | 0.675 | 0.52 | 0.542 | 0.726 | 0.787 | 0.767 | 0.642 | 0.544 | 0.611 | 0.556 | 0.703 | 0.698 | 0.98 | 0.702 | 0.417 | 0.85 | 0.582 | 0.78 | 0.896 | 0.354 | 0.51 |
| CC1(COc2ccc3c(c2)ncn3-c2ccc3cccc(N4CCC(N)CC4)c3n2)COC1 [Crenolanib] | 0.549 | 0.746 | 0.53 | 0.53 | 0.481 | 0.452 | 0.45 | 0.894 | 0.488 | 0.855 | 0.569 | 0.269 | 0.436 | 0.409 | 0.594 | 0.464 | 0.861 | 0.541 | 0.325 | 0.407 | 0.52 | 0.339 | 0.459 | 0.423 | 0.616 | 0.949 | 0.91 | 0.49 | 0.818 | 0.59 | 0.46 | 0.663 | 0.45 | 0.879 | 0.53 | 0.773 | 0.672 | 0.779 | 0.704 | 0.426 |
| Cc1cn(-c2cc(NC(=O)c3ccc(C)c(Nc4nccc(-c5cccnc5)n4)c3)cc(C(F)(F)F)c2)cn1 [Nilotinib] | 0.863 | 0.94 | 0.88 | 0.81 | 0.512 | 0.443 | 0.86 | 0.918 | 0.736 | 0.896 | 0.944 | 0.39 | 0.904 | 0.908 | 0.798 | 0.89 | 0.841 | 0.953 | 0.693 | 0.695 | 0.78 | 0.959 | 0.634 | 0.604 | 0.948 | 0.91 | 0.953 | 0.851 | 0.942 | 0.838 | 0.871 | 0.889 | 0.865 | 0.929 | 0.88 | 0.946 | 0.741 | 0.978 | 0.948 | 0.826 |
| C[C@@H](Oc1cc(-c2cnn(C3CCNCC3)c2)cnc1N)c1c(Cl)ccc(F)c1Cl [Crizotinib] | 0.75 | 0.677 | 0.73 | 0.44 | 0.405 | 0.457 | 0.39 | 0.831 | 0.423 | 0.437 | 0.359 | 0.381 | 0.471 | 0.465 | 0.368 | 0.34 | 0.733 | 0.703 | 0.362 | 0.323 | 0.4 | 0.338 | 0.447 | 0.306 | 0.577 | 0.833 | 0.769 | 0.0611 | 0.731 | 0.509 | 0.358 | 0.487 | 0.456 | 0.406 | 0.54 | 0.765 | 0.654 | 0.744 | 0.817 | 0.335 |
